Tested on: soybeans
Assay: Field screening for metribuzin tolerance in soybeans (injury rating, 1-9 scale)
Format: in vivo, Glycine max
Details: soybean lines containing a heterozygous (CT) allele of NGMAX006079502
Procedure: A rating scale that evaluates the degree of metribuzin sensitivity can also be employed to identify “metribuzin sensitive” and “metribuzin tolerant” plants. An exemplary and non-limiting scale for evaluating the Metribuzin sensitivity phenotype is as follows, where a low number corresponds to a “metribuzin tolerance” phenotype and the a high number correlates to a “metribuzin sensitivity” phenotype: Field screening for metribuzin tolerance in soybeans was performed at the Monsanto Company Soybean Research Station near Mount Olive, N.C. in 2010 and 2011. Metribuzin application rate was 0.5 lbs/acre metribuzin (Sencor®, Bayer Crop Science, Research Triangle Park, N.C., USA) one day prior to planting. Rows were planted as single 6′ row plots with 9 seed per foot. Multiple repetitions were grown per row. Within 24 hours after planting, the trial was irrigated with 0.5″ of water to help incorporate and activate the herbicide. Injury ratings were taken fourteen to twenty one (14-21) days after planting using a 1-9 scale (for example, 1=no damage, 9=completely killed). After identifying the target region through the mapping population described in Example 2, a molecular marker was identified. An association study was done using a soybean molecular marker database. […]

In the case of CSc1nnc(C(C)(C)C)c(=O)n1N [Metribuzin, 4-Amino-6-(1,1-dimethylethyl)-3-(methylthio)-1,2,4-triazin-5(4H)-one], the “metribuzin phenotype in the field” value is reported as “mixed phenotype of both tolerance and sensitivity”.

— patent publication US10544468B2, “Molecular markers and phenotypic screening for metribuzin tolerance” (Monsanto Technology LLC, priority 2012, dated 2020)
